Results taken from patent US20220334127A1, “IN VITRO METHOD FOR OBTAINING CLINICAL DATA IN PATIENTS SUFFERING FROM AN INFLAMMATORY DISEASE” (FUNDACIÓN PARA LA FORMACIÓN E INVESTIGACIÓN SANITARIAS DE …, priority 2019, published 2022).

Columns and labels:
HIF-1α = HIF-1α staining in human monocytes by flow cytometry; type: cell-based; settings: ATP 1 mM 30 min; for HIF-1α expression induced by ATP treatment: AZ11645373 10 μM or PDTC 10 μM (FIG. 7e); for HIF-1α expression by the agent itself: washed, cultured 2 h (FIG. 7e)
Experimental: Human peripheral blood mononuclear cells (PBMCs) were isolated from blood within one hour after extraction using Ficoll histopaque 1077 (Sigma-Aldrich). […] Cells were treated with ATP (Sigma-Aldrich), antimycin A (Sigma-Aldrich) or FCCP (Sigma-Aldrich) in the presence or absence of PDTC (Sigma-Aldrich) or echinomycin (Sigma-Aldrich) in E-total buffer (147 mM NaCl, 10 mM HEPES, 13 mM glucose, 2 mM CaCl2), 1 mM MgCl2, and 2 mM KCl) and then washed and stimulated with E. coli LPS O55:B5 in their respective complete media. […] After LPS treatment, cells were incubated with P2X7 modulating nanobodies, the specific P2X7 receptor antagonist A438079 or AZ11645373 (Tocris), and then subsequently stimulated with ATP or nigericin (Sigma-Aldrich) in E-total buffer. Times and concentrations for the reagents used are specified in the figure legends.
HIF-1α expression was detected in CD14^+ monocytes using Alexa Fluor-647 mouse anti-human HIF-1α (BD Biosciences, Clone 54) at 1:1000 dilution.

NLRP3 inflammasome [1] = test: IL-1β release from BMDMs pre-treated, washed, LPS-primed and stimulated with nigericin; type: cell-based, mouse; settings: for IL-1β release after mitochondrial depolarizing agent: wild type or P2rx7−/− BMDMs, antimycin A 5 μM or FCCP 1 μM 30 min, then LPS 1 μg/ml 4 h, nigericin 10 μM 30 min (FIG. 6d)
Experimental: FIG. 6. P2X7 receptor stimulation induces an impairment of the NLRP3 inflammasome in monocytes. (a-b) Percentage of monocytes with ASC-specks (a) and release of […] from PBMCs (b) isolated from healthy donor blood samples treated with ATP (3 mM, 30 min; ATP-pre), then washed and primed with or without LPS (1 μg/ml, 2 h) and then treated for 20 min with ATP (3 mM; ATP-post) or nigericin (10 μM) as indicated. (c) IL-1β release from wild type or P2rx7^−/− BMDMs treated as in a, but with 4 h LPS priming and 30 min of ATP or nigericin. (d) IL-1β release from wild type or P2rx7^−/− BMDMs treated for 30 min with antimycin A (5 μM) or FCCP (1 μM) and then washed and primed with LPS (1 μg/ml, 4 h) and then stimulated with nigericin (10 μM, 30 min) as indicated. (e) Expression of Nrlp3 and Illb genes analyzed by quantitative PCR from wild type or P2rx7^−/− BMDMs treated with ATP (3 mM, 30 min; ATP-pre), then washed and primed with or without LPS (100 ng/ml, 4 h). (f) Kaplan-Meier representation of wild type (top) or P2rx7^−/− (bottom) mice survival after sham operation (dotted line), or CLP operation (continuous line); some mice groups were i.p. injected with ATP (0.5 mg/g) 30 min before operation (dashed lines). Wild type CLP n=10, CLP+ATP n=8, sham n=4, sham+ATP n=4; P2rx7^−/− CLP n=4, CLP+ATP n=6, sham n=3. (g) IL-1β from peritoneal lavage (left) or bacterial load in blood (right) from wild type sham, CLP or CLP+ATP mice after 24 h. Each dot represents a single independent experiment (c,d), a sample from an individual healthy donor (a,b,e) or a single mouse (g); average±standard error is represented in panels a-e,g; *p<0.05; **p<0.01; ns, no significant difference (p>0.05); Mann-Whitney test was used for a,b,d,e; Kruskal-Wallis test was used for c; Long-rank test for f.
(§1) FIG. 7. Mitochondrial dysfunction mediates P2X7 receptor induced NLRP3 inflammasome impairment. (a) Mitochondrial membrane depolarization in BMDMs treated with ATP (3 mM, 30 min), then washed out and incubated for the indicated times in the absence or presence of LPS (1 μg/ml) as indicated. […] (e) Representative histogram plot of HIF-1α staining (left) or quantification of HIF-1α mean intensity fluorescence increase (ΔMFI, right) in monocytes isolated from healthy donor blood samples and treated or not with ATP (1 mM, 30 min) in the presence or absence of AZ11645373 (10 μM) or PDTC (10 μM), and then washed and cultured for 2 h; non-stained monocytes (light grey, left). […] (g) Expression of HIF1A gene analyzed by quantitative PCR from control surgery group and septic patients PBMCs; septic patients are separated into NLRP3 non-immunocompromised (grey bar) and immunocompromised (black bar). […]

Cell death (LDH assay) = type: cell-based
Experimental: Presence of LDH in cell-free supernatants was measured using the Cytotoxicity Detection kit (Roche) following the manufacturer's instructions.

NLRP3 inflammasome [2] = test: IL-1β release from PBMCs of healthy donors pre-treated with ATP, LPS-primed and stimulated with nigericin; type: cell-based; settings: human PBMCs, ATP-pre 1 mM 30 min with PDTC 10 μM, LPS 1 μg/ml 4 h, nigericin 10 μM 30 min (FIG. 7d)
Experimental: as §1, with “indicated. (b) IL-1β release from wild-type BMDMs treated as in a, but after LPS priming cells were stimulated with nigericin (10 μM, 30 min). (c) Mitochondrial membrane depolarization in BMDMs treated with ATP (3 mM, 30 min) in the presence or absence pyrrolidine dithiocarbamate (PDTC, 40 μM).” for “indicated.”

BMDMs = test: ATP-induced mitochondrial membrane depolarization in BMDMs with or without antioxidant; type: cell-based, mouse; settings: ATP 3 mM 30 min, PDTC 40 μM (FIG. 7c)
Experimental: as §1, with “indicated. (b) IL-1β release from wild-type BMDMs treated as in a, but after LPS priming cells were stimulated with nigericin (10 μM, 30 min). (c) Mitochondrial membrane depolarization in BMDMs treated with ATP (3 mM, 30 min) in the presence or absence pyrrolidine dithiocarbamate (PDTC, 40 μM).” for “indicated.”

Nlrp3 and Illb = test: Quantitative PCR of Nlrp3 and Il1b gene induction by LPS; type: cell-based, mouse
Experimental: FIG. 6. P2X7 receptor stimulation induces an impairment of the NLRP3 inflammasome in monocytes. (a-b) Percentage of monocytes with ASC-specks (a) and release of […] from PBMCs (b) isolated from healthy donor blood samples treated with ATP (3 mM, 30 min; ATP-pre), then washed and primed with or without LPS (1 μg/ml, 2 h) and then treated for 20 min with ATP (3 mM; ATP-post) or nigericin (10 μM) as indicated. (c) IL-1β release from wild type or P2rx7^−/− BMDMs treated as in a, but with 4 h LPS priming and 30 min of ATP or nigericin. (d) IL-1β release from wild type or P2rx7^−/− BMDMs treated for 30 min with antimycin A (5 μM) or FCCP (1 μM) and then washed and primed with LPS (1 μg/ml, 4 h) and then stimulated with nigericin (10 μM, 30 min) as indicated. (e) Expression of Nrlp3 and Illb genes analyzed by quantitative PCR from wild type or P2rx7^−/− BMDMs treated with ATP (3 mM, 30 min; ATP-pre), then washed and primed with or without LPS (100 ng/ml, 4 h). […]
Detailed methods used for qRT-PCR have been described in the prior art. Relative gene expression levels were calculated using the 2^−ΔCt method normalizing to Hprt1 expression as endogenous control.

Molecule | HIF-1α expression induced by ATP treatment (HIF-1α) | IL-1β release after mitochondrial depolarizing agent (NLRP3 inflammasome [1]) | cell death (Cell death (LDH assay)) | HIF-1α expression by the agent itself (HIF-1α) | other results
O=C1CSC(=O)N1C(CCc1ccncc1)COc1ccc(-c2cccc([N+](=O)[O-])c2)cc1 (stereo not drawn) [AZ116] | able to prevent it |  |  |  | 
N#CC(C#N)=NNc1ccc(OC(F)(F)F)cc1 [FCCP] |  | reduced | did not induce cell death | did not increase | 
S=C(S)N1CCCC1 [PDTC, pyrrolidine dithiocarbamate] | able to prevent it |  |  |  | production of IL-1β after ATP stimulation before LPS-priming and NLRP3 activation (NLRP3 inflammasome [2]): restored; ATP-induced mitochondrial membrane depolarization (BMDMs): able to protect
CS[C@H]1SC[C@H]2C(=O)N(C)[C@@H](C(C)C)C(=O)OC[C@@H](NC(=O)c3cnc4ccccc4n3)C(=O)N[C@@H](C)C(=O)N(C)[C@@H]1C(=O)N(C)[C@@H](C(C)C)C(=O)OC[C@@H](NC(=O)c1cnc3ccccc3n1)C(=O)N[C@@H](C)C(=O)N2C [echinomycin] |  |  |  |  | production of IL-1β after ATP stimulation before LPS-priming and NLRP3 stimulation (NLRP3 inflammasome [1]; BMDMs, ATP-pre 3 mM 30 min with echinomycin 5 nM, LPS 1 μg/ml 4 h, nigericin 10 μM 30 min (FIG. 7f)): restored
antimycin A |  | reduced | did not induce cell death | did not increase | Nlrp3 and Illb gene induction by LPS (Nlrp3 and Illb): reduced
